Measurements: article PMC7386434 (Organic letters, 2010)

Legend:
Type in all cases: cell-based
[1] = system: colorectal carcinoma cell line HCT-116; assay: Antiproliferative activity, HCT-116 cells; conditions: Homo sapiens, HCT-116, read-out: GI50 HCT-116
[2] = system: human lung cancer cell line (A549); assay: Antiproliferative activity, A549 cells; conditions: A549, read-out: GI50 A549
[3] = system: human embryonic kidney cell line (HEK293); assay: Antiproliferative activity, HEK293 cells; conditions: HEK293, read-out: GI50 HEK293
[4] = system: human embryonic lung fibroblast (HLF) cells; assay: Antiproliferative activity, HLF cells; conditions: read-out: GI50 HLF

## CCCCCCCC(=O)SCC/C=C/[C@@H]1CC(=O)NCc2nc(cs2)C2=N[C@@](C)(CS2)C(=O)N[C@@H](C(C)C)C(=O)O1 [compound 1, largazole]
[1]
  GI50: 80 nM
[2]
  GI50: 320 nM
[3]
  GI50: 1360 nM
[4]
  GI50: 980 nM
